Data: patent publication US8217029B2, “Oxazolidinone antibiotics” (Actelion Pharmaceuticals Ltd, priority 2007, dated 2012)
In brackets after ≈: the same amount, converted by molar mass.

Tested on: S aureus A798
Assay: Minimal inhibitory concentration (MIC), microdilution method in cation-adjusted Mueller-Hinton Broth following NCCLS guidelines
Type: cell-based
Details: pH of test medium 7.2-7.3
How it was run: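 Broth microdilution per NCCLS M7-A4 in cation-adjusted Mueller-Hinton broth at pH 7.2-7.3; MIC reported in mg/l.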

Row | Structure (SMILES) | MIC [µg/mL]
1 | N#Cc1ccc2nccc(N3CC[C@@H](NC[C@@H]4CN(c5ccc6c(c5)NC(=O)CS6)C(=O)O4)C3)c2c1 [Example 178, 4-((R)-3-{[(R)-2-oxo-3-(3-oxo-3,4-dihydro-2H-benzo[1,4]thiazin-6-yl)-oxazolidin-5-ylmethyl]-amino}-pyrrolidin-1-yl)-quinoline-6-carbonitrile] | 0.063 (≈ 0.126 µM)
2 | O=C1CSc2ccc(N3C[C@@H](CNC4CCN(c5ccnc6ccc(F)cc56)CC4)OC3=O)cc2N1 [Example 179, 6-((R)-5-{[1-(6-Fluoro-quinolin-4-yl)-piperidin-4-ylamino]-methyl}-2-oxo-oxazolidin-3-yl)-4H-benzo[1,4]thiazin-3-one] | ≤ 0.031
3 | N#Cc1ccc2nccc(N3CCC(NC[C@@H]4CN(c5ccc6c(c5)NC(=O)CS6)C(=O)O4)CC3)c2c1 [Example 180, 4-(4-{[(R)-2-oxo-3-(3-oxo-3,4-dihydro-2H-benzo[1,4]thiazin-6-yl)-oxazolidin-5-ylmethyl]-amino}-piperidin-1-yl)-quinoline-6-carbonitrile] | ≤ 0.031
4 | COc1ccc2nccc(N3C[C@H](NC[C@@H]4CN(c5ccc6c(c5)NC(=O)CO6)C(=O)O4)[C@@H](OC)C3)c2n1 [Example 181, 6-((R)-5-{[(3S,4S)-4-Methoxy-1-(6-methoxy-[1,5]naphthyridin-4-yl)-pyrrolidin-3-ylamino]-methyl}-2-oxo-oxazolidin-3-yl)-4H-benzo[1,4]oxazin-3-one] | 0.25 (≈ 0.48 µM)
5 | COc1ccc2nccc(N3C[C@H](NC[C@@H]4CN(c5ccc6c(c5)NC(=O)CS6)C(=O)O4)[C@@H](OC)C3)c2n1 [Example 182, 6-((R)-5-{[(3S,4S)-4-Methoxy-1-(6-methoxy-[1,5]naphthyridin-4-yl)-pyrrolidin-3-ylamino]-methyl}-2-oxo-oxazolidin-3-yl)-4H-benzo[1,4]thiazin-3-one] | ≤ 0.031
6 | COc1ccc(N2C[C@@H](CNC3CCN(c4ccnc5ccc(OC)nc45)CC3)OC2=O)cc1 [Example 183, (R)-5-{[1-(6-Methoxy-[1,5]naphthyridin-4-yl)-piperidin-4-ylamino]-methyl}-3-(4-methoxy-phenyl)-oxazolidin-2-one] | 0.25 (≈ 0.539 µM)
7 | CCOc1ccc(N2C[C@@H](CNC3CCN(c4ccnc5ccc(OC)nc45)CC3)OC2=O)cc1 [Example 184, (R)-3-(4-Ethoxy-phenyl)-5-{[1-(6-methoxy-[1,5]naphthyridin-4-yl)-piperidin-4-ylamino]-methyl}-oxazolidin-2-one] | 0.5 (≈ 1.05 µM)
8 | COc1ccc2nccc(N3CCC(NC[C@@H]4CN(c5ccc(OC(F)F)cc5)C(=O)O4)CC3)c2n1 [Example 185, (R)-3-(4-Difluoromethoxy-phenyl)-5-{[1-(6-methoxy-[1,5]naphthyridin-4-yl)-piperidin-4-ylamino]-methyl}-oxazolidin-2-one] | 0.5 (≈ 1 µM)
9 | COc1ccc2nccc(N3CC(CNC[C@@H]4CN(c5ccc6c(c5)NC(=O)CS6)C(=O)O4)C3)c2c1 [Example 186, 6-[(R)-5-({[1-(6-Methoxy-quinolin-4-yl)-azetidin-3-ylmethyl]-amino}-methyl)-2-oxo-oxazolidin-3-yl]-4H-benzo[1,4]thiazin-3-one] | ≤ 0.031
